{"source": "patent US20120121540A1", "about": "(priority 2007, published 2012)"}
{"test": "HCV replicon assay (luciferase reporter, ET cell line)", "format": "cell-based", "conditions": "Hepatitis C virus, HCV replicon luciferase activity in ET cells", "protocol": "A cell line, ET (Huh-lucubineo-ET) is used for screening of compounds for inhibiting HCV RNA dependent RNA polymerase. The ET cell line is stably transfected with RNA transcripts harboring a I389 luc-ubi-neo/NS3-3′/ET; replicon with firefly luciferase-ubiquitin-neomycin phosphotransferase fusion protein and EMCV-IRES driven NS3-5B polyprotein containing the cell culture adaptive mutations (E1202G; T1280I; K1846T) (Krieger at al, 2001 and unpublished). The ET cells are grown in DMEM (Dulbeco's Modified Eagle's Medium), supplemented with 10% fetal calf serum, 2 mM Glutamine, Penicillin (100 IU/mL)/Streptomycin (100 μg/mL), 1× nonessential amino acids, and 250 μg/mL G418 (“Geneticin”). They are all available through Life Technologies (Bethesda, Md.). The cells are plated at 0.5−1.0×10^4 cells/well in the 96 well plates and incubated for 24 hrs before adding test compound. The compounds are added to the cells to achieve a final concentration of 0.1 nM to 50 μm and a final DMSO (dimethylsulfoxide) concentration of 0.5%. Luciferase activity is measured 48-72 hours later by adding a lysis buffer and the substrate (Catalog number Glo-lysis buffer E2661 and Bright-Glo luciferase system E2620 Promega, Madison, Wis.). Cells should not be too confluent during the assay. Percent inhibition of replication data is plotted relative to no compound control. Under the same condition, cytotoxicity of the compounds are determined using cell proliferation reagent, WST-1 (Roche, Germany). The compounds showing antiviral activities, but no significant cytotoxicities are chosen to determine EC50 and TC50. For these determinations, a 10 point, 2-fold serial dilution for each compound was used, which spans a concentration range of 1000 fold. EC50 and similarly TC50 values were calculated by fitting % inhibition at each concentration to the following equation:\n% inhibition=100%/[(EC50/[I])^b+1]\nwhere b is Hill's coefficient.\n% inhibition values at a specific concentration, […] for example, can also be derived from the equation above.", "units": {"inhibition at 10 µM": "%"}}
{"molecule": "CN(C)Cc1c(C(=O)NCc2cccs2)nc2c(C(F)(F)F)cc(-c3cccc(F)c3)cn12", "note": "[Compound 365, 3-Dimethylaminomethyl-6-(3-fluoro-phenyl)-8-trifluoromethyl-imidazo[1,2-a]pyridine-2-carboxylic Acid (thiophen-2-ylmethyl)-amide]", "inhibition at 10 µM": 4.4}
{"molecule": "O=C(c1nc2c(C(F)(F)F)cc(-c3ccoc3)cn2c1Cl)N1CCC1c1ccccc1", "note": "(stereo not shown) [Compound 487, (3-Chloro-6-furan-3-yl-8-trifluoromethyl-imidazo[1,2-a]pyridin-2-yl)-(2-phenyl-azetidin-1-yl)-methanone]", "inhibition at 10 µM": 94.2}
{"molecule": "[H]/N=C(/NCc1cccs1)c1nc2c(C(F)(F)F)cc(-c3ccoc3)cn2c1Cl", "note": "[Compound 382, 3-Chloro-6-furan-3-yl-N-thiophen-2-ylmethyl-8-trifluoromethyl-imidazo[1,2-a]pyridine-2-carboxamidine]", "inhibition at 10 µM": 65.4}
{"molecule": "CN(C)S(=O)(=O)c1ccccc1C1=CCN(C(=O)c2nc3c(C(F)(F)F)cc(-c4ccoc4)cn3c2Cl)CC1", "note": "[Compound 577, 2-[1-(3-Chloro-6-furan-3-yl-8-trifluoromethyl-imidazo[1,2-a]pyridin-2-carbonyl)-1,2,3,6-tetrahydro-pyridin-4-yl)-N,N-dimethyl-benzenesulfonamide]", "inhibition at 10 µM": 71.2}
{"molecule": "O=C(NCc1cccs1)c1nn2c(I)cc(-c3ccccc3)cc2c1I", "note": "[Compound 119, 3,7-diiodo-5-phenyl-pyrazolo[1,5-a]pyridine-2-carboxylic Acid (thiophen-2-ylmethyl)-amide]", "inhibition at 10 µM": 71.5}
{"molecule": "O=C(c1nc2c(C(F)(F)F)cc(-c3ccoc3)cn2c1Cl)N1CCC(N2CCOCC2)C1", "note": "(stereo not shown) [Compound 381, (3-Chloro-6-furan-3-yl-8-trifluoromethyl-imidazo[1,2-a]pyridin-2-yl)-(3-morpholin-4-yl-pyrrolidin-1-yl)-methanone]", "inhibition at 10 µM": 37.9}
{"molecule": "O=C(NCc1cccs1)c1cn2cc(-c3ccco3)cc(C(F)(F)F)c2n1", "note": "[Compound 138, 6-Furan-2-yl-8-trifluoromethyl-imidazo[1,2-a]pyridine-2-carboxylic Acid (thiophen-2-ylmethyl)-amide]", "inhibition at 10 µM": 92.1}
{"molecule": "O=C(c1nc2c(C(F)(F)F)cc(-c3ccoc3)cn2c1Cl)N1CC=C(c2ccc(F)nc2F)CC1", "note": "[Compound 617, (3-Chloro-6-furan-3-yl-8-trifluoromethyl-imidazo[1,2-a]pyridin-2-yl)-(2,6-difluoro-3′,6′-dihydro-2′H-[3,4′]bipyridinyl-1′-yl)-methanone]", "inhibition at 10 µM": 95}
{"molecule": "Cn1cncc1CNC(=O)c1nc2c(C(F)(F)F)cc(-c3ccco3)cn2c1Cl", "note": "[Compound 327, 3-Chloro-6-furan-2-yl-8-trifluoromethyl-imidazo[1,2-a]pyridine-2-carboxylic Acid (3-methyl-3H-imidazol-4-ylmethyl)-amide]", "inhibition at 10 µM": 95.4}
{"molecule": "CN(C)CCOc1ccc(CNC(=O)c2nc3c(C(F)(F)F)cc(-c4ccco4)cn3c2Cl)cc1", "note": "[Compound 214, 3-Chloro-6-furan-2-yl-8-trifluoromethyl-imidazo[1,2-a]pyridine-2-carboxylic Acid 4-(2-dimethylamino-ethoxy)-benzylamide]", "inhibition at 10 µM": 49}
{"molecule": "CN(C)CCNC(=O)C(NC(=O)c1nc2c(C(F)(F)F)cc(-c3ccco3)cn2c1Cl)c1cccs1", "note": "(stereo not shown) [Compound 172, 3-Chloro-6-furan-2-yl-8-trifluoromethyl-imidazo[1,2-a]pyridine-2-carboxylic acid [(2-dimethylamino-ethylcarbamoyl)-thiophen-2-yl-methyl]-amide]", "inhibition at 10 µM": 100}
{"molecule": "CC(C)S(=O)(=O)NC1CN(C(=O)c2nc3c(C(F)(F)F)cc(-c4ccoc4)cn3c2Cl)C1", "note": "[Compound 497, Propane-2-sulfonic acid [1-(3-chloro-6-furan-3-yl-8-trifluoromethyl-imidazo[1,2-a]pyridine-2-carbonyl)-azetidin-3-yl]-amide]", "inhibition at 10 µM": 97.8}
{"molecule": "CN(Cc1cccs1)C(=O)c1cc2cc(-c3ccccc3)cc(C(F)(F)F)n2n1", "note": "[Compound 147, 5-phenyl-7-trifluoromethyl-pyrazolo[1,5-a]pyridine-2-carboxylic Acid methyl-thiophen-2-ylmethyl-amide]", "inhibition at 10 µM": 26.8}
